Source: patent publication US5521199A, “Piperidinyl compounds as neurokinin receptor antagonists” (Zeneca Limited, priority 1993, dated 1996)
Structures can show the parent of a compound that is named as a salt.

Assays:
human NK2 receptor = molecular target: T1, human NK2 receptor (Homo sapiens, UniProt P21452); test: Neurokinin A (NKA) Receptor-binding Assay (Test A); conditions: 3H-NKA, MELM, 60 min at 25° C., pH 7.4
T1 sequence (P21452 1-398): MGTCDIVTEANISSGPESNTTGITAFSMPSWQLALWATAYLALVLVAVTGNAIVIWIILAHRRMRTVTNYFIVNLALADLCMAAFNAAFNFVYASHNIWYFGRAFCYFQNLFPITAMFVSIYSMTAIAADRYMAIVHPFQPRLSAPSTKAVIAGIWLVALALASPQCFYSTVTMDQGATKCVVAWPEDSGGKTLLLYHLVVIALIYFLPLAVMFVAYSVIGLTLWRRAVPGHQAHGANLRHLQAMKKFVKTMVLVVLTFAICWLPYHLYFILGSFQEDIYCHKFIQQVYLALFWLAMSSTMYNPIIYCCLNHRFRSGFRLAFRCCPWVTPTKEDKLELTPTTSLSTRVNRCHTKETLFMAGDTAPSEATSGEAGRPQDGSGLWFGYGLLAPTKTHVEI
Description: Membrane preparations (MELM) prepared from the MEL cells containing high-affinity NK2 receptors were prepared according to a published protocol (D. Aharony, et al., Neuropeptides (1992) 23, 121-130) with the following minor modifications: (1) Iodoacetamide (1 mM) was included in the homogenization buffer; (2) Homogenization was as published but for a shorter period of 10 seconds once and at a slower speed (setting 10); and (3) The equilibration step with KCl/EDTA was not performed.

guinea pig trachea = molecular target: T2, guinea pig trachea (Cavia porcellus, UniProt Q64077); test: Guinea Pig Trachea Assay (Test B); format: cell-based; conditions: antagonism of NKA or [β-ala8]-NKA(4-10) contraction; -log molar KB; read-out: pKB (Test B) (converted)
T2 construct: The trachea are removed, trimmed of excess tissue and divided into two segments; from tissue; host or cells: trachea of male guinea pigs, rings in tissue baths
T2 sequence (Q64077 1-402): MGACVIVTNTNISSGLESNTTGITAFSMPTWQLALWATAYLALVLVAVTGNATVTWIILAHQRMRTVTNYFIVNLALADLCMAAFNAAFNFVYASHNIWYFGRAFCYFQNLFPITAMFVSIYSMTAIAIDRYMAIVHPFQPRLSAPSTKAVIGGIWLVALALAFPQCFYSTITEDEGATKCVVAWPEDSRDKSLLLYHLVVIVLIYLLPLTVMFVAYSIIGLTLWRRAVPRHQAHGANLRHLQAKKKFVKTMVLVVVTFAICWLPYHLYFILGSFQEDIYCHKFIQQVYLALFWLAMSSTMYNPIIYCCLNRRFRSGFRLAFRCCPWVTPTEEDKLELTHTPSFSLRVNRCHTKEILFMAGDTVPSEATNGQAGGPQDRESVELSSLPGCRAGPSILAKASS
Description: Guinea Pig Trachea Assay (Test B)
In the test described below either NKA or [β-ala^8 ]-NKA(4-10) is used as an agonist. The chosen agonist is referred to as AG throughout the description.
Male guinea pigs are killed by a sharp blow to the back of the head. The trachea are removed, trimmed of excess tissue and divided into two segments. […] Initial tension placed on each tissue is 1 g, which is maintained throughout a 0.5 to 1.5 hour equilibration period before addition of other drugs. Contractile responses are measured on a Grass polygraph via Grass FT-03 force transducers.
Tissues are challenged repetitively with a single concentration of AG (10 nM) with intervening 30 min periods with washing to allow the tension to return to baseline levels. […] Percent inhibition is determined when a Compound produces a statistically significant (p<0.05) reduction of the contraction and is calculated using the second contractile response as 100%.
Potencies of selected Compounds are evaluated by calculating apparent dissociation constants (KB) for each concentration tested using the standard equation: […]
where dose ratio=antilog[(AG -log molar EC50 without Compound)--(AG -log molar EC50 with Compound)]. The KB values may be converted to the negative logarithms and expressed as -log molar KB (i.e. pKB). […] The EC50 values are converted to the negative logarithms and expressed as -log molar EC50. […]

NK2 receptor = test: Guinea Pig Labored Abdominal Breathing (Dyspnea) Assay (Test C); format: in vivo; conditions: oral, two hours prior to challenge with the agonist [β-ala8]-NKA(4-10) aerosol; all five animals fully protected
Description: Guinea Pig Labored Abdominal Breathing (Dyspnea) Assay (Test C)
Using the clear plastic chamber described previously by Snyder et al. to secure guinea pigs for a head-only aerosol exposure to bronchoconstrictor agonists, agonist is administered by aerosol to six conscious guinea pigs simultaneously during each maneuver. The tachykinin NK2-selective agonist, [β-ala^8 ]-NKA(4-10), 3×10^-5 M, is aerosolized from a Devilbiss Model 25 ultrasonic nebulizer into an air stream entering the chamber at a rate of 2 L/minute.
Guinea pigs (275-400 g) are fasted for approximately 16 hours prior to experimentation. Compounds to be evaluated for blockade of effects of [β-ala^8 ]-NKA(4-10) or their vehicle (10% PEG400 in saline) are administered p.o. or i.v. at various times before aerosol agonist challenge. All animals are pretreated with atropine (10 mg/kg, j.p., 45 minutes pretreatment) indomethacin (10 mg/kg, i.p., 30 minutes pretreatment), propranolol (5 mg/kg, i.p., 30 minutes pretreatment), and thiorphan (1 mg/ml aerosol for 5 minutes, 15 minutes pretreatment)
Aerosol challenge with the agonist produces an initial increase in respiratory rate followed by a decrease with early signs of minor involvement of the abdominal muscles. […] Time, in seconds, from the onset of aerosol challenge to this end point is determined for each animal by using a stopwatch. […]

SMILES | Ki (human NK2 receptor) [nM] | Kb (guinea pig trachea) [nM] | protection (Test C) (NK2 receptor) [%]
CC(=O)OCCC1CCN(CCC(CN(C)C(=O)c2ccccc2)c2ccc(Cl)c(Cl)c2)CC1 (centres unmarked) [Example 10, N-[2-(3,4-Dichlorophenyl)-4-[4-(2-acetoxyethyl)piperidino]butyl]-N-methylbenzamide hydrochloride] | 40 | 15.8 | –
CCC(O)(CC)C1CCN(CC[C@H](CN(C)C(=O)c2ccccc2)c2ccc(Cl)c(Cl)c2)CC1.Cl [Example 16, (S)-N-[2-(3,4-Dichlorophenyl)-4-[4-(1-ethyl-1-hydroxypropyl)piperidino]butyl]-N-methylbenzamide hydrochloride] | 1.5 | 3.98 | 100
